Measurements: PMC9040839 (mBio, 2022)
Several values for one entry are separate records, joined by “and”; a condition that tells them apart may be missing. Identical values can stand only once. Entries after “also recorded” stand apart in the source; their conditions may differ. Like-named read-outs stand apart in the source and are kept apart here.

How the values were obtained:
[1] = target: PctD(PA4633)-LBD (Pseudomonas aeruginosa, UniProt Q9HVF8); assay: biochemical; conditions: for ΔH / KD: ITC, 25°C, pH 7.5
Procedure: Measurements were made using a VP-ITC microcalorimeter (MicroCal, Inc., Northampton, MA) at 25°C. […] The mean enthalpies from the injection of ligands into the buffer were subtracted from raw data prior to data fitting using the “one binding site model” of the MicroCal version of the ORIGIN software.

[2] = target: PacA(ECA_RS10935)-LBD (Pectobacterium atrosepticum, UniProt Q6D515); assay: Isothermal titration calorimetry of PacA-LBD with ligands; type: binding, P. atrosepticum SCRI1043; conditions: ITC, 25°C, pH 7.0
Procedure: Measurements were made using a VP-ITC microcalorimeter (MicroCal, Inc., Northampton, MA) at 25°C. PA4633-LBD was dialyzed into 5 mM Tris, 5 mM PIPES [piperazine-N,N′-bis(2-ethanesulfonic acid)], 5 mM MES (morpholineethanesulfonic acid), 150 mM NaCl, 10% (vol/vol) glycerol, pH 7.5, whereas ECA_RS10935-LBD was dialyzed into 40 mM KH2PO4/K2HPO4, 10% (vol/vol) glycerol, pH 7.0. Proteins at 15 to 22 μM were placed into the sample cell and titrated with 9.6-μL aliquots of 0.5 to 10 mM ligand solutions made up in dialysis buffer. […] The mean enthalpies from the injection of ligands into the buffer were subtracted from raw data prior to data fitting using the “one binding site model” of the MicroCal version of the ORIGIN software.

[3] = test system: P. aeruginosa PAO1; type: cell-based, Pseudomonas aeruginosa; conditions: capillary assay; for concentration of maximal chemotaxis response / response threshold of chemotaxis: 30 min; for maximal accumulation: at 10 μM
Procedure: (§1) Overnight cultures in M9 minimal medium supplemented with 6 mg/L Fe-citrate, trace elements ([89]), and 15 mM glucose were used to inoculate fresh medium to an OD660 of 0.05. Cells were cultured at 30°C (Pectobacterium atrosepticum, Pantoea agglomerans, Serratia plymuthica, Pseudomonas stutzeri, Agrobacterium tumefaciens, Dickeya solani, Pseudomonas savastanoi pv. savastanoi) or 37°C (P. aeruginosa, E. coli, Salmonella enterica serovar Typhimurium) to an OD660 of 0.4 to 0.5. Subsequently, cells were washed twice by centrifugation (1,667 × g for 5 min at room temperature) and resuspension in chemotaxis buffer (50 mM KH2PO4/K2HPO4, […], 0.05% [vol/vol] glycerol, pH 7.0) and then resuspended in the same buffer at an OD660 of 0.1. Aliquots (230 μL) of the resulting cell suspension were placed into the wells of 96-well microtiter plates. Then, 1-μL capillaries (Microcaps, Drummond Scientific) were heat-sealed at one end and filled with buffer (control) or chemoeffector solution prepared in chemotaxis buffer. The capillaries were rinsed with sterile water and immersed into the bacterial suspensions at their open ends. After 30 min, capillaries were removed from the wells, rinsed with sterile water, and emptied into 1 mL of chemotaxis buffer. Serial dilutions were plated onto M9 minimal medium plates supplemented with 20 mM glucose, incubated at 30°C or 37°C prior to colony counting. Data were corrected with the number of cells that swam into buffer containing capillaries. Data are the means and standard deviations of three biological replicates conducted in triplicate.

[4] = test system: E. coli strain UU1250 expressing PctD-Tar; type: cell-based
Procedure: The microfluidic assay was performed as previously described, using a chip with 24 parallel microchannels ([105]). […]. Cells were harvested by centrifugation and washed twice with tethering buffer. Chemoeffectors were dissolved in tethering buffer at a concentration of 50 mM, and the pH was adjusted to 7.0. The chemical source microchannels were filled with 4% (wt/vol) agarose gel to create a semipermeable barrier. E. coli cells were added to the reservoir well and allowed to spread for 30 min into the channels. Compounds were added to the source well and allowed to form a concentration gradient. Cell fluorescence was recorded with a Ti-E inverted microscope system (Nikon Instruments Europe BV, Amsterdam, Netherlands) using a 20×lens objective. Data were analyzed using ImageJ (Wayne Rasband, NIH, USA).

[5] = test system: P. atrosepticum SCRI1043; assay: Capillary chemotaxis assay; type: cell-based, Pectobacterium atrosepticum; conditions: 1 mM chemoeffector
Procedure: as §1

[6] = test system: Agrobacterium tumefaciens C58; assay: Capillary chemotaxis assay; type: cell-based; conditions: 1 mM acetylcholine
Procedure: as §1, with “Data were corrected with the number of cells that swam into buffer containing capillaries. Data are the means and standard deviations of three biological replicates conducted in triplicate.” left out

[7] = test system: Dickeya solani MK10; assay: Capillary chemotaxis assay; type: cell-based; conditions: 1 mM acetylcholine
Procedure: as §1, with “Data were corrected with the number of cells that swam into buffer containing capillaries. Data are the means and standard deviations of three biological replicates conducted in triplicate.” left out

[8] = target: BmrR; design: method as in PMID 21690368; conditions: cited from earlier work
[9] = target: PctD-Tar hybrid (Pseudomonas aeruginosa, UniProt Q9HVF8); assay: cell-based
[10] = test system: P. aeruginosa PAO1; assay: Growth experiments with Biolog compound array PM2A; type: cell-based, Pseudomonas aeruginosa; conditions: M9 minimal medium, 96-well plate, 48 h, 37°C
Procedure: PAO1 was grown overnight in M9 minimal medium containing 10 mM glucose. Cultures were washed twice and then diluted to an OD600 of 0.02 in either M9 or M8 medium (M9 minimal medium without NH4Cl) containing 10 mM glucose and medium supplemented with each of the compounds present in the Biolog compound array PM2A (https://www.biolog.com/wp-content/uploads/2020/04/00A-042-Rev-C-Phenotype-MicroArrays-1-10-Plate-Maps.pdf) as sole carbon source. Then, 200 μL of these cultures were transferred into microwell plates, and growth at 37°C was followed on a Bioscreen microbiological growth analyzer (Oy Growth Curves Ab Ltd., Helsinki, Finland).

[11] = target: TlpQ; conditions: cited from earlier work
[12] = test system: P. aeruginosa; conditions: cited from earlier work

PctD(PA4633)-LBD, sequence (Q9HVF8 entry or part of it): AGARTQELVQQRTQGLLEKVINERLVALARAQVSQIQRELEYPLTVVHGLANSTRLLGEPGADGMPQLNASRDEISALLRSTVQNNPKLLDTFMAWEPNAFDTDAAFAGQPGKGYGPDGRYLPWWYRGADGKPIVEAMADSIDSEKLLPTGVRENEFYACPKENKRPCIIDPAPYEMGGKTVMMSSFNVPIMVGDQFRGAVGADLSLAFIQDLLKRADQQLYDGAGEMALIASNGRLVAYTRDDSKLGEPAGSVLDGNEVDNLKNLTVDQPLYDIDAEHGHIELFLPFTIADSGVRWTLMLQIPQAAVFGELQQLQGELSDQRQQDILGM
PacA(ECA_RS10935)-LBD, sequence (Q6D515 entry or part of it): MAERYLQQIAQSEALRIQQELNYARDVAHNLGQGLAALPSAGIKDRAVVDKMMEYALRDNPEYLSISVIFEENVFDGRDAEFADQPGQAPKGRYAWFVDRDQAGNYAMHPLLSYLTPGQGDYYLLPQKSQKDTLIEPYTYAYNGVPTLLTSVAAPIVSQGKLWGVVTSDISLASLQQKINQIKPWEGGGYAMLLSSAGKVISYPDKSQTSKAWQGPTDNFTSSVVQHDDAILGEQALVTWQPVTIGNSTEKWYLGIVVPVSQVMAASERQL
PctD-Tar hybrid, sequence (Q9HVF8 entry or part of it): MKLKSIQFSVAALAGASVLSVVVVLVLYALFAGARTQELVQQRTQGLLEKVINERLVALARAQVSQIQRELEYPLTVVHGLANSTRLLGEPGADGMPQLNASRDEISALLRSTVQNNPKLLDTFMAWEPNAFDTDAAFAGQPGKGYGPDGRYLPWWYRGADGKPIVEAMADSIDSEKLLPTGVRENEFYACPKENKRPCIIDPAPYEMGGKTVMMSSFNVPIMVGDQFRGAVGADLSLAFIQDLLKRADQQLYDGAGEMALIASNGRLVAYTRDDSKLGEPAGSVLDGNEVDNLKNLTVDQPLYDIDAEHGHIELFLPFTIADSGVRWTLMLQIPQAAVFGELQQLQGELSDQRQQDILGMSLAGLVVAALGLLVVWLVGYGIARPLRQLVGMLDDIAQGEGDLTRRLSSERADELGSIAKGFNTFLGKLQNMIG
PctD-Tar hybrid, sequence (P07017 267-553, further chain): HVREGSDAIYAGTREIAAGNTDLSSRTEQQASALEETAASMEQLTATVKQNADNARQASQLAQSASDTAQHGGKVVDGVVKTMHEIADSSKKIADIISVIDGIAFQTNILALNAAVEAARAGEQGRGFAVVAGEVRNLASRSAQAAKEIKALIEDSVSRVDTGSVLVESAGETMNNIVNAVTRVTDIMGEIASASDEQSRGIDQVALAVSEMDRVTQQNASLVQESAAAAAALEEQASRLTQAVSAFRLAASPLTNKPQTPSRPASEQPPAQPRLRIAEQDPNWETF

For `CC(=O)OCC[N+](C)(C)C` [acetylcholine], the ΔH [1] was -12.2 ± 1.0 kcal/mol, the KD [2] was “fails to recognize; also recorded: absence of binding” and the ΔH [2] was “No binding”. For the same molecule, the KD ([2]; listed as Acetylcholine) was “No binding”, the “concentration of maximal chemotaxis response” value [3] was 10 µM and the “response threshold of chemotaxis” value [3] was 1 µM. For the same molecule, the maximal accumulation [3] was ~300,000 bacteria per capillary, the “chemoattraction in microfluidic assay” value ([4]; 50 mM in source channel) was “much stronger chemoattraction” and the chemotaxis response [5] was “failed to respond”. For the same molecule, the magnitude of chemotaxis [6] was “comparable to that in P. aeruginosa”, the magnitude of chemotaxis [7] was “about a third of that observed in P. aeruginosa” and the Kd [8] was 6.6 µM.
For `C[N+](C)(C)CCO` [choline], the Kd [1] was 2.6 ± 0.1 µM, the ΔH [1] was -20.3 ± 0.3 kcal/mol and the Kd [2] was 113 ± 16.4 µM. For the same molecule, the ΔH [2] was -2.1 ± 0.2 kcal/mol, the “concentration of maximal chemotaxis response” value [3] was 10 µM and the “response threshold of chemotaxis” value [3] was 0.1 µM. The maximal accumulation [3] was ~300,000 bacteria per capillary, the “chemoattraction in microfluidic assay” value [4] was “much stronger chemoattraction” and the chemotaxis response [5] was “low but reproducible chemotaxis”. It also gave an EC50 [9] of 0.04 ± 0.01 µM.
In the case of `C[N+](C)(C)CC(=O)O` [betaine], the Kd [1] is reported as 990 ± 59 µM, the KD [1] is reported as “low affinity” and the ΔH [1] is reported as -2.4 ± 4.1 kcal/mol. The Kd [2] was 7.5 ± 0.1 µM, the ΔH [2] was -16.1 ± 0.1 kcal/mol and the “chemoattraction” value [3] was “comparable to that of L-carnitine”. The chemotaxis response [5] was “low but reproducible chemotaxis” and the EC50 [9] was 150 ± 25 µM.
For `C[N+](C)(C)C[C@H](O)CC(=O)[O-]` [L-carnitine], the KD [1] was “No response; also recorded: could not be visualized; also recorded: No binding”, the ΔH [1] was “No binding” and the Kd [2] was 20 ± 2 µM. For the same molecule, the ΔH [2] was -4.9 ± 0.4 kcal/mol, the “chemoattraction” value [3] was “chemoattraction” and the “concentration of maximal chemotaxis response” value [3] was 10000 µM. For the same molecule, the “response threshold of chemotaxis” value [3] was 100 µM, the chemotaxis response [5] was “low but reproducible chemotaxis” and the “growth as carbon source” value [10] was “significant growth”. The EC50 [9] was 31 ± 6 µM.
In the case of `NCCc1c[nH]cn1` [histamine], the Kd [11] is given as 0.64 µM and 1.2 µM and the “lowest concentration giving attraction” value [12] is given as 500 nM.
